This note sets out measurements from publication PMC11148045, “Structural basis for recognition of 26RFa by the pyroglutamylated RFamide peptide receptor” (Cell Discovery, 2024).

What all share (experiment): 26RFa-induced calcium mobilization, receptor mutants
Assay type in all cases: cell-based

Assay [1] addresses T1, QRFPR mutants (Homo sapiens, UniProt Q96P65, Y190A).
T1 construct: expressed in transfected cells; host or cells: HEK293, transient transfection by electroporation
The conditions noted are these: HEK293, QRFPR Y190^ECL2A; HEK293, Fluo-4; mean ± S.E.M., n ≥ 3. How it is done:
(§1) The gene encoding the WT QRFPR, PrPRR, KISS1R, NPFF1R, or NPFF2R was subcloned into the pcDNA3.0 vector with the addition of an N-terminal HA tag. All of the mutations used for functional studies were generated by QuickChange PCR and verified by DNA sequencing.
(§2) HEK293 cells were obtained from ATCC (Manassas, VA, USA) and cultured in DMEM supplemented with 10% (v/v) FBS, 100 mg/L penicillin, and 100 mg/L streptomycin in 5% CO2 at 37 °C. For transient transfection, ~2.5 × 10^6 cells were mixed with 2 µg plasmids in 200 µL transfection buffer, and electroporation was carried out with a Scientz-2C electroporation apparatus (Scientz Biotech, Ningbo, China). The experiments were carried out 24 h after transfection.
(§3) For QRFPR, PrRPR, and KISS1R, HEK293 cells transfected with WT receptor or its mutants were seeded at a density of 4 × 10^4 per well into 96-well culture plates and incubated for 24 h at 37 °C in 5% CO2. For NPFF1R and NPFF2R, plasmids were transfected into HEK293 cells stably expressing Gα16. On the next day, cells were incubated with 2 μmol/L Fluo-4 AM in HBSS supplemented with 5.6 mmol/L D-glucose and 250 μmol/L sulfinpyrazone at 37 °C for 45 min. After washing, cells were added with 50 μL HBSS and incubated at room temperature for 10 min, then 25 μL agonist buffer was dispensed into the well using a FlexStation III microplate reader (Molecular Devices), and intracellular calcium change was recorded at an excitation wavelength of 485 nm and an emission wavelength of 525 nm. EC50 and Emax values for each curve were calculated by Prism 8.0 software (GraphPad Software).

Assay [2] concerns the target T2, QRFPR mutants (Homo sapiens, UniProt Q96P65, T102A).
T2 construct: expressed in transfected cells; host or cells: HEK293, transient transfection by electroporation
The conditions noted are these: HEK293, QRFPR T102^2.60A; HEK293, Fluo-4; mean ± S.E.M., n ≥ 3. How it is done:
as §1, §2, §3

Assay [3] addresses T3, QRFPR mutants (Homo sapiens, UniProt Q96P65, T215A).
T3 construct: expressed in transfected cells; host or cells: HEK293, transient transfection by electroporation
The conditions noted are these: HEK293, QRFPR T215^5.39A; HEK293, Fluo-4; mean ± S.E.M., n ≥ 3. The method, then: as §1, §2, §3

Assay [4] addresses T4, QRFPR mutants (Homo sapiens, UniProt Q96P65, S108A).
T4 construct: expressed in transfected cells; host or cells: HEK293, transient transfection by electroporation
The conditions noted are these: HEK293, QRFPR S108^2.65A; HEK293, Fluo-4; mean ± S.E.M., n ≥ 3. The method, then: as §1, §2, §3

For assay [5], the target named is T5, QRFPR mutants (Homo sapiens, UniProt Q96P65, F192A).
T5 construct: expressed in transfected cells; host or cells: HEK293, transient transfection by electroporation
T5 sequence (Q96P65 whole entry F192A): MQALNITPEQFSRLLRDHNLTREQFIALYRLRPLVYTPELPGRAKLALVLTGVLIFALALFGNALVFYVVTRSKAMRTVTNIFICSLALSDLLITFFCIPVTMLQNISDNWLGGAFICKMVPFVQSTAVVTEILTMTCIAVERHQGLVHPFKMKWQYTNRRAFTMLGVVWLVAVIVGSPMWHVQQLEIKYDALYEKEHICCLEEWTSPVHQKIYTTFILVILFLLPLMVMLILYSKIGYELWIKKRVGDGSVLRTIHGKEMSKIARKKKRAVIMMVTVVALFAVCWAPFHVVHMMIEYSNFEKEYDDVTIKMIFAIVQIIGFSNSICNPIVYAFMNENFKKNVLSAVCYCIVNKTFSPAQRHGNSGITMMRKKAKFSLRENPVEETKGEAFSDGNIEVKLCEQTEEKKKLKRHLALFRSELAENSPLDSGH
The conditions noted are these: HEK293, QRFPR F192^ECL2A; HEK293, Fluo-4; mean ± S.E.M., n ≥ 3. The method, then:
as §1, §2, §3

Assay [6] deals with T6, QRFPR mutants (Homo sapiens, UniProt Q96P65, L104A).
T6 construct: expressed in transfected cells; host or cells: HEK293, transient transfection by electroporation
T6 sequence (Q96P65 whole entry L104A): as the sequence (Q96P65 whole entry F192A) above, with L104A, A192F counted along it
The conditions noted are these: HEK293, QRFPR L104^2.62A; HEK293, Fluo-4; mean ± S.E.M., n ≥ 3. The method, then: as §1, §2, §3

Assay [7] has as its target T7, QRFPR mutants (Homo sapiens, UniProt Q96P65, L222A).
T7 construct: expressed in transfected cells; host or cells: HEK293, transient transfection by electroporation
How it is done: as §1, §2, §3

Assay [8] deals with T8, QRFPR mutants (Homo sapiens, UniProt Q96P65, F289A).
T8 construct: expressed in transfected cells; host or cells: HEK293, transient transfection by electroporation
T8 sequence (Q96P65 whole entry F289A): as the sequence (Q96P65 whole entry F192A) above, with A192F, F289A counted along it
How it is done: as §1, §2, §3

Assay [9] concerns the target T9, QRFPR mutants (Homo sapiens, UniProt Q96P65, F322A).
T9 construct: expressed in transfected cells; host or cells: HEK293, transient transfection by electroporation
The conditions noted are these: HEK293, QRFPR F322^7.43A; HEK293, Fluo-4; mean ± S.E.M., n ≥ 3. How it is done: as §1, §2, §3

Assay [10] deals with T10, QRFPR mutants (Homo sapiens, UniProt Q96P65).
T10 construct: expressed in transfected cells; host or cells: HEK293, transient transfection by electroporation
How it is done:
as §1, §2, §3
T10 sequence (Q96P65 39-431, change not shown): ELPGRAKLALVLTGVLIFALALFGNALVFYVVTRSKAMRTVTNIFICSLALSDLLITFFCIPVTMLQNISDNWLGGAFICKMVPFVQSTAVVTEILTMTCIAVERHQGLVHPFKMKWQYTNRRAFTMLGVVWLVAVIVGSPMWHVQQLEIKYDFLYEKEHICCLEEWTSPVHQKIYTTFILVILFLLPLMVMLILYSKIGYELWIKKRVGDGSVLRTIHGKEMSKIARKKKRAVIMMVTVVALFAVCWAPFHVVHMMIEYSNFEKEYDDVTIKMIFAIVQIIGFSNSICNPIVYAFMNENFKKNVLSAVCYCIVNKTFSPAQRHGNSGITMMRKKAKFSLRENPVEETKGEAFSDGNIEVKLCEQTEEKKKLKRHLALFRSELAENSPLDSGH

Assay [11] concerns the target T11, QRFPR mutants (Homo sapiens, UniProt Q96P65, C201A).
T11 construct: expressed in transfected cells; host or cells: HEK293, transient transfection by electroporation
The conditions noted are these: HEK293, QRFPR C201^ECL2A; HEK293, Fluo-4; mean ± S.E.M., n ≥ 3. The method, then:
as §1, §2, §3

Assay [12] addresses T12, QRFPR mutants (Homo sapiens, UniProt Q96P65, Y214A).
T12 construct: expressed in transfected cells; host or cells: HEK293, transient transfection by electroporation
The conditions noted are these: HEK293, QRFPR Y214^5.38A; HEK293, Fluo-4; mean ± S.E.M., n ≥ 3. The method, then: as §1, §2, §3

Assay [13] deals with T13, QRFPR mutants (Homo sapiens, UniProt Q96P65).
T13 construct: expressed in transfected cells; host or cells: HEK293, transient transfection by electroporation
The conditions noted are these: HEK293, QRFPR Δ1-18; HEK293, Fluo-4; mean ± S.E.M., n ≥ 3. How it is done: as §1, §2, §3
T13 sequence (Q96P65 19-431, change not shown): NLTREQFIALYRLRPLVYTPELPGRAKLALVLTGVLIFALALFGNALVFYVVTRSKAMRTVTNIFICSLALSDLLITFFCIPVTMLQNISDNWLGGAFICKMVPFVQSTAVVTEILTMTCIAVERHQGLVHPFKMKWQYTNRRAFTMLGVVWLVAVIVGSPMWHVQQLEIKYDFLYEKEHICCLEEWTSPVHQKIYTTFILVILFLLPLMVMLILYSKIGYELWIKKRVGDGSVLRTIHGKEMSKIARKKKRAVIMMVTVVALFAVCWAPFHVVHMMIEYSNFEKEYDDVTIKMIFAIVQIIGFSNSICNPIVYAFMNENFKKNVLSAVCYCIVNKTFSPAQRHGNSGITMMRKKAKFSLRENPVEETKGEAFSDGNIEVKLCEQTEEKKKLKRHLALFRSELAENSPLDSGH

The target of assay [14] is T14, QRFPR mutants (Homo sapiens, UniProt Q96P65, D109A).
T14 construct: expressed in transfected cells; host or cells: HEK293, transient transfection by electroporation
T14 sequence (Q96P65 whole entry D109A): as the sequence (Q96P65 whole entry F192A) above, with D109A, A192F counted along it
The conditions noted are these: HEK293, QRFPR D109^2.67A; HEK293, Fluo-4; mean ± S.E.M., n ≥ 3. How it is done: as §1, §2, §3

In assay [15] the target is T15, QRFPR mutants (Homo sapiens, UniProt Q96P65, P122A).
T15 construct: expressed in transfected cells; host or cells: HEK293, transient transfection by electroporation
T15 sequence (Q96P65 whole entry P122A): as the sequence (Q96P65 whole entry F192A) above, with P122A, A192F counted along it
The conditions noted are these: HEK293, QRFPR P122^3.29A; HEK293, Fluo-4; mean ± S.E.M., n ≥ 3. The method, then:
as §1, §2, §3

The target of assay [16] is T16, QRFPR mutants (Homo sapiens, UniProt Q96P65, I117A).
T16 construct: expressed in transfected cells; host or cells: HEK293, transient transfection by electroporation
T16 sequence (Q96P65 whole entry I117A): as the sequence (Q96P65 whole entry F192A) above, with I117A, A192F counted along it
The conditions noted are these: HEK293, QRFPR I117^3.24A; HEK293, Fluo-4; mean ± S.E.M., n ≥ 3. The method, then: as §1, §2, §3

Assay [17] has as its target T17, QRFPR mutants (Homo sapiens, UniProt Q96P65, C200A).
T17 construct: expressed in transfected cells; host or cells: HEK293, transient transfection by electroporation
The conditions noted are these: HEK293, QRFPR C200^ECL2A; HEK293, Fluo-4; mean ± S.E.M., n ≥ 3. The method, then:
as §1, §2, §3

The target of assay [18] is T18, QRFPR mutants (Homo sapiens, UniProt Q96P65, I199A).
T18 construct: expressed in transfected cells; host or cells: HEK293, transient transfection by electroporation
T18 sequence (Q96P65 whole entry I199A): as the sequence (Q96P65 whole entry F192A) above, with A192F, I199A counted along it
The conditions noted are these: HEK293, QRFPR I199^ECL2A; HEK293, Fluo-4; mean ± S.E.M., n ≥ 3. How it is done: as §1, §2, §3

In general, Emax refers to the greatest response seen or fitted, relative to the assay's reference.

No end group written: not given here.

T7 sequence (Q96P65 whole entry L222A): as the sequence (Q96P65 whole entry F192A) above, with A192F, L222A counted along it
T9 sequence (Q96P65 whole entry F322A): as the sequence (Q96P65 whole entry F192A) above, with A192F, F322A counted along it
T3 sequence (Q96P65 whole entry T215A): as the sequence (Q96P65 whole entry F192A) above, with A192F, T215A counted along it
T1 sequence (Q96P65 whole entry Y190A): as the sequence (Q96P65 whole entry F192A) above, with Y190A, A192F counted along it
T12 sequence (Q96P65 whole entry Y214A): as the sequence (Q96P65 whole entry F192A) above, with A192F, Y214A counted along it
T11 sequence (Q96P65 whole entry C201A): as the sequence (Q96P65 whole entry F192A) above, with A192F, C201A counted along it
T17 sequence (Q96P65 whole entry C200A): as the sequence (Q96P65 whole entry F192A) above, with A192F, C200A counted along it
T2 sequence (Q96P65 whole entry T102A): as the sequence (Q96P65 whole entry F192A) above, with T102A, A192F counted along it
T4 sequence (Q96P65 whole entry S108A): as the sequence (Q96P65 whole entry F192A) above, with S108A, A192F counted along it

With ASGPLGTLAEELSSYSRRKGGFSFRF-NH2 [26RFa], the Emax came out at 23.6 ± 0.22% on QRFPR mutants [1]; 94 ± 1.4% on QRFPR mutants [2]; 85.8 ± 3.4% on QRFPR mutants [3]; 51.7 ± 0.73% on QRFPR mutants [4]; 87.4 ± 0.93% at QRFPR mutants [5]; 109 ± 0.69% at QRFPR mutants [6]. In addition, the maximal response (Emax) was 99 ± 1.3% at QRFPR mutants [7] (HEK293, QRFPR L222^5.46A, HEK293, Fluo-4, mean ± S.E.M., n ≥ 3); 54.4 ± 1.4% at QRFPR mutants [8] (HEK293, QRFPR F289^6.51A, HEK293, Fluo-4, mean ± S.E.M., n ≥ 3); 11.1 ± 0.26% at QRFPR mutants [9]; 14.7 ± 1.5% at QRFPR mutants [10] (HEK293, QRFPR Δ1-38, HEK293, Fluo-4, mean ± S.E.M., n ≥ 3); 1.84 ± 1.5% at QRFPR mutants [11]; 1.42 ± 0.7% at QRFPR mutants [12]. Also, the maximum response (Emax) came out at 53.2 ± 0.75% on QRFPR mutants [13]; 111 ± 1.3% on QRFPR mutants [14]; 96.7 ± 1.4% on QRFPR mutants [15]; 75.1 ± 3.1% on QRFPR mutants [16]; 88.5 ± 1.2% at QRFPR mutants [17]; 89.7 ± 2.3% at QRFPR mutants [18]. On QRFPR mutants [7] (26RFa, QRFPR L^5.46 (Supplementary Fig. S3)), the “effect of L^5.46 on peptide activity” value is reported as “negligible effects”. The “effect of mutation on 26RFa activity” value at QRFPR mutants [8] (QRFPR F289^6.51 to alanine) is “dramatic decrease in the activity of 26RFa”. Besides, the “peptide-induced QRFPR activity” value at QRFPR mutants [10] (QRFPR Δ1–38 (entire N-terminus truncated)) is “abolished the peptide-induced QRFPR activity”.
